Measurements: PubChem BioAssay AID330 (DTP/NCI, 2004)
Values joined by “and” are separate entries in the source; they are usually repeats but may differ in a detail not shown here. Identical values can stand only once. Toxic doses and inconclusive results are not listed. How the source made its calls: active means survival T/C of 150% or more; inactive means T/C below 125% in these data.

Test system: P388 leukemia ip, CD2F1 mice, survival T/C
Assay: NCI In Vivo Anticancer Drug Screen. Data for tumor model P388 Leukemia (intraperitoneal) in CD2F1 (CDF1) mice
Conditions: endpoint: median survival time, higher = longer survival
Outline: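 Mice carrying the transplanted tumor received test compound or vehicle. Survival was recorded in each group, and the value is the treated-group measurement divided by that of the vehicle-treated control group.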

[1] = dose: 60.0 mg/kg/injection, schedule: Q01DX005 (ip), vehicle: Klucel (hydroxypropylcellulose) (HPC)
[2] = dose: 120.0 mg/kg/injection, schedule: Q01DX005 (ip), vehicle: Klucel (hydroxypropylcellulose) (HPC)
[3] = dose: 240.0 mg/kg/injection, schedule: Q01DX005 (ip), vehicle: Klucel (hydroxypropylcellulose) (HPC)
[4] = dose: 25.0 mg/kg/injection, schedule: Q01DX009 (ip), vehicle: saline with Tween-80
[5] = dose: 50.0 mg/kg/injection, schedule: Q01DX005 (ip), vehicle: saline with Tween-80
[6] = dose: 100.0 mg/kg/injection, schedule: Q01DX005 (ip), vehicle: saline with Tween-80
[7] = dose: 200.0 mg/kg/injection, schedule: Q01DX005 (ip), vehicle: saline with Tween-80
[8] = dose: 12.5 mg/kg/injection, schedule: Q01DX009 (ip), vehicle: Klucel (hydroxypropylcellulose) (HPC)
[9] = dose: 50.0 mg/kg/injection, schedule: Q01DX009 (ip), vehicle: saline
[10] = dose: 400.0 mg/kg/injection, schedule: Q01DX005 (ip), vehicle: saline with Tween-80

Measured: T/C

CCOC(=O)CNC(=O)OCCS(=O)CCOC(=O)NCC(=O)OCC
inactive: dose: 100.0 mg/kg/injection, schedule: Q01DX001 (ip), vehicle: saline 98 % of control | dose: 200.0 mg/kg/injection, schedule: Q01DX001 (ip), vehicle: saline 93 % of control | dose: 400.0 mg/kg/injection, schedule: Q01DX001 (ip), vehicle: saline 101 % of control

CCC(CCC(C)C1CCC2C3CC=C4CC(OP(=[Se])(c5ccccc5)c5ccccc5)CCC4(C)C3CCC12C)C(C)C (configuration not stated)
inactive: dose: 13.75 mg/kg/injection, schedule: Q01DX001 (ip), vehicle: Klucel (hydroxypropylcellulose) (HPC) 102 % of control | dose: 27.5 mg/kg/injection, schedule: Q01DX001 (ip), vehicle: Klucel (hydroxypropylcellulose) (HPC) 106 % of control | dose: 55.0 mg/kg/injection, schedule: Q01DX001 (ip), vehicle: Klucel (hydroxypropylcellulose) (HPC) 104 % of control

CCCCCCC1C/C(=C/N(C)C)C(=O)O1 (configuration not stated)
inactive: [1] 92 % of control | [2] 104 % of control | [3] 92 % of control

CCCCCCCCCCCCCCCCC(C(=O)O)C(O)(CC(=O)O)C(=O)O (configuration not stated)
inactive: dose: 8.75 mg/kg/injection, schedule: Q01DX009 (ip), vehicle: Klucel (hydroxypropylcellulose) (HPC) 95 % of control | dose: 12.5 mg/kg/injection, schedule: Q01DX009 (ip), vehicle: saline with Tween-80 91 % of control | dose: 17.5 mg/kg/injection, schedule: Q01DX009 (ip), vehicle: Klucel (hydroxypropylcellulose) (HPC) 101 % of control | [4] 94 % of control | dose: 35.0 mg/kg/injection, schedule: Q01DX009 (ip), vehicle: Klucel (hydroxypropylcellulose) (HPC) 95 % of control | dose: 70.0 mg/kg/injection, schedule: Q01DX009 (ip), vehicle: Klucel (hydroxypropylcellulose) (HPC) 87 % of control | dose: 100.0 mg/kg/injection, schedule: Q01DX009 (ip), vehicle: saline with Tween-80 90 % of control

Cc1ccccc1C(=O)NC1c2ccccc2Oc2ccccc21
inactive: [5] 100 % of control | [6] 100 % of control | [7] 100 % of control

CC1=CC(=O)C=CC1=Nc1ccc(N(C)C)cc1
inactive: [4] 108 % of control | dose: 50.0 mg/kg/injection, schedule: Q01DX009 (ip), vehicle: saline with Tween-80 109 % of control

CC(=O)NC(C=O)C(O)C(O)C(O)C(=O)O (configuration not stated) (tested in a mixture with another compound)
inactive: dose: 6.25 mg/kg/injection, schedule: Q01DX009 (ip), vehicle: Klucel (hydroxypropylcellulose) (HPC) 101 % of control | [8] 94 % of control | dose: 25.0 mg/kg/injection, schedule: Q01DX009 (ip), vehicle: Klucel (hydroxypropylcellulose) (HPC) 92 % of control

ICC1CCCCC1CI (configuration not stated)
inactive: [5] 106 % of control | [6] 99 % of control | [7] 104 % of control

COCC(=O)O
inactive: [9] 96 % of control | dose: 100.0 mg/kg/injection, schedule: Q01DX009 (ip), vehicle: saline 93 % of control

Nc1cc(=O)c2n[nH]nc2[nH]1
inactive: dose: 50.0 mg/kg/injection, schedule: Q04DX003 (ip), vehicle: saline with Tween-80 100 % of control | dose: 100.0 mg/kg/injection, schedule: Q04DX003 (ip), vehicle: saline with Tween-80 108 % of control | dose: 200.0 mg/kg/injection, schedule: Q04DX003 (ip), vehicle: saline with Tween-80 108 % of control | dose: 400.0 mg/kg/injection, schedule: Q04DX003 (ip), vehicle: saline with Tween-80 107 % of control

O=C(CCc1ccc(O)cc1)c1c(O)cc(O)cc1O
inactive: [5] 107 % of control | dose: 50.0 mg/kg/injection, schedule: Q01DX009 (ip), vehicle: saline + alcohol 112 % of control | [6] 108 % of control | dose: 100.0 mg/kg/injection, schedule: Q01DX009 (ip), vehicle: saline + alcohol 117 % of control | [7] 114 % of control | dose: 200.0 mg/kg/injection, schedule: Q01DX009 (ip), vehicle: saline + alcohol 108 % of control | [10] 114 % of control

O=C(NCC1CC1)NC(=O)c1c(F)cccc1Cl
inactive: [1] 102 % of control | [2] 106 % of control | [3] 106 % of control

O=C1C(Cl)=C(NC2C(O)OC(CO)C(O)C2O)C(=O)C(Cl)=C1NC1C(O)OC(CO)C(O)C1O (configuration not stated)
inactive: [5] 96 % of control | [6] 90 % of control | [7] 97 % of control

Cc1cc(N(CCOS(C)(=O)=O)CCOS(C)(=O)=O)ccc1C=Nc1ccc(-c2nc(Cc3ccccc3)sc2C)cc1
inactive: [8] 101 % of control | dose: 12.5 mg/kg/injection, schedule: Q01DX009 (oral), vehicle: Klucel (hydroxypropylcellulose) (HPC) 106 % of control and 107 % of control | dose: 25.0 mg/kg/injection, schedule: Q01DX009 (oral), vehicle: Klucel (hydroxypropylcellulose) (HPC) 100 % of control and 107 % of control | dose: 50.0 mg/kg/injection, schedule: Q01DX009 (oral), vehicle: Klucel (hydroxypropylcellulose) (HPC) 106 % of control and 117 % of control | dose: 100.0 mg/kg/injection, schedule: Q01DX009 (oral), vehicle: Klucel (hydroxypropylcellulose) (HPC) 108 % of control | dose: 200.0 mg/kg/injection, schedule: Q01DX009 (oral), vehicle: Klucel (hydroxypropylcellulose) (HPC) 119 % of control and 124 % of control | dose: 400.0 mg/kg/injection, schedule: Q01DX009 (oral), vehicle: Klucel (hydroxypropylcellulose) (HPC) 106 % of control

CCCCCC(=O)O[C@H]1CC[C@@H]2[C@H]1[C@@H]1CC[C@H]3O[C@]31C2(C)C
inactive: [1] 111 % of control | [2] 111 % of control | [3] 121 % of control

CCCCCCOC(=O)c1ccccc1OP(=O)(N(C)C)N(C)C
inactive: dose: 50.0 mg/kg/injection, schedule: Q01DX005 (ip), vehicle: saline 98 % of control | dose: 100.0 mg/kg/injection, schedule: Q01DX005 (ip), vehicle: saline 101 % of control

CSc1nccc(=O)n1-c1ccc(C)cc1
inactive: dose: 100.0 mg/kg/injection, schedule: Q04DX002 (ip), vehicle: saline with Tween-80 102 % of control | dose: 200.0 mg/kg/injection, schedule: Q04DX002 (ip), vehicle: saline with Tween-80 102 % of control | dose: 400.0 mg/kg/injection, schedule: Q04DX002 (ip), vehicle: saline with Tween-80 98 % of control

O=C(Oc1ccccc1)c1cc(O)c(O)c(O)c1
inactive: dose: 25.0 mg/kg/injection, schedule: Q01DX005 (ip), vehicle: saline with Tween-80 100 % of control and 95 % of control | [5] 100 % of control and 101 % of control | [6] 99 % of control and 100 % of control | [7] 101 % of control and 116 % of control | [10] 109 % of control

CCCCCCCCCCC[CH2][Sn]([CH3])([CH3])[O]C(C)=O
inactive: dose: 12.5 mg/kg/injection, schedule: Q01DX009 (ip), vehicle: saline 99 % of control | dose: 25.0 mg/kg/injection, schedule: Q01DX009 (ip), vehicle: saline 99 % of control | [9] 94 % of control

O=C1C2=C3C(=CC4COC3O4)C3C4COC(O4)C(=O)C3C2C2COC1O2 (configuration not stated)
inactive: dose: 100.0 mg/kg/injection, schedule: Q04DX002 (ip), vehicle: Klucel (hydroxypropylcellulose) (HPC) 115 % of control | dose: 200.0 mg/kg/injection, schedule: Q04DX002 (ip), vehicle: Klucel (hydroxypropylcellulose) (HPC) 109 % of control | dose: 400.0 mg/kg/injection, schedule: Q04DX002 (ip), vehicle: Klucel (hydroxypropylcellulose) (HPC) 115 % of control

Cc1ccc(C2OC3=C(Nc4ccc([N+](=O)[O-])cc4N3)C2=O)cc1 (configuration not stated)
inactive: [1] 90 % of control | [2] 93 % of control | [3] 96 % of control

O=C1c2ccccc2C(=O)N1C1Nc2ccccc2N1
inactive: dose: 60.0 mg/kg/injection, schedule: Q01DX005 (ip), vehicle: saline with Tween-80 99 % of control | dose: 120.0 mg/kg/injection, schedule: Q01DX005 (ip), vehicle: saline with Tween-80 99 % of control | dose: 240.0 mg/kg/injection, schedule: Q01DX005 (ip), vehicle: saline with Tween-80 96 % of control

NC(CS(=O)Cc1ccccc1)C(=O)O (configuration not stated)
inactive: [5] 95 % of control | [6] 102 % of control

CC1OC2=C(CC1O)C(=O)c1ccccc1C2=O (configuration not stated)
inactive: dose: 100.0 mg/kg/injection, schedule: Q01DX001 (ip), vehicle: Klucel (hydroxypropylcellulose) (HPC) 102 % of control | dose: 200.0 mg/kg/injection, schedule: Q01DX001 (ip), vehicle: Klucel (hydroxypropylcellulose) (HPC) 102 % of control | dose: 400.0 mg/kg/injection, schedule: Q01DX001 (ip), vehicle: Klucel (hydroxypropylcellulose) (HPC) 100 % of control

C=CC1=NC(C)(C)CC(C)O1 (configuration not stated)
inactive: dose: 1.56 mg/kg/injection, schedule: Q01DX009 (ip), vehicle: water 104 % of control | dose: 3.13 mg/kg/injection, schedule: Q01DX009 (ip), vehicle: water 107 % of control | dose: 6.25 mg/kg/injection, schedule: Q01DX009 (ip), vehicle: water 116 % of control | dose: 12.5 mg/kg/injection, schedule: Q01DX009 (ip), vehicle: water 109 % of control
